Assay results from publication PMC8427973, “Regulation of the HTRA2 Protease Activity by an Inhibitory Antibody-Derived Peptide Ligand and the Influence on HTRA2-Specific Protein Interaction Networks in Retinal Tissues” (Biomedicines, 2021).

Key:
[1] = system: recombinant 6xHis-tag HTRA2 and its protein interaction partners in homogenized porcine retina; test: Co-immunoprecipitation (Co-IP) of HTRA2 protein interaction partners, quantitative LC-MS/MS (iBAQ, volcano plot vs CTRL beads); design: species or system house swine (Sus scrofa); details: 2 µg HTRA2 + 10 µg compound, n = 3, vs CTRL beads
Protocol: The retina extraction and homogenization were performed as already described in previous publications. The use of animal by-products of house swine for scientific research purposes was approved by the Kreisverwaltung Mainz-Bingen in Germany (Identification Code: DE 07 315 0006 21, approved on 13 January 2014). In brief, retinal tissues were extracted from freshly removed porcine eye bulbs (house swine, Sus scrofa domestica Linnaeus, n = 30) provided by the local slaughterhouses (Landmetzgerei Harth, Stadecken-Elsheim, Germany). Afterwards, the retinal tissues were homogenized in 2 mL screw cap microtubes filled with 1.4/2.8 mm ceramic beads and 1 mL Tissue Protein Extraction Reagent (T-PER, Thermo Fisher Scientific, Rockford, IL, USA) using a Percellys® 24 homogenizer (VWR International GmbH, Darmstadt, Germany). The homogenized retinal samples were then centrifuged at 14,000× g for 15 min at 4 °C. The protein-containing supernatant was exchanged in a 100 µL phosphate-buffered saline (PBS) using a 3 kDa Amicon® filtration unit (Millipore, Billerica, MA, USA) and, prior to this, was extensively washed in order to completely remove traces of the T-PER buffer. Afterwards, the samples were pooled and the protein concentration was determined using a Pierce Bicinchoninic Acid (BCA) Protein Assay Kit (Thermo Fisher Scientific, Rockford, IL, USA) according to the manufacturer’s protocol, which provided 5 mg aliquots for further analysis.
The recombinant protein HTRA2 with a C-terminal 6xHis-tag motif (Novoprotein Scientific INC., Summit, NJ, USA) and 40 μL HisPurTM Ni-NTA magnetic beads (Thermo Fisher Scientific, Rockford, IL, USA) were spiked into 5 mg homogenized porcine retina. The experiment comprised of four groups: control homogenate (CTRL group), homogenate with 2 μg recombinant HTRA2 (HTRA2 group), homogenate with 2 μg recombinant HTRA2 and 10 μg UCF-101 (UCF-101 group), and homogenate with 2 μg recombinant HTRA2 and 10 μg synthetic CDR peptide (CDR group). The Co-IP of the recombinant HTRA2 and the enrichment of the respective interaction partners was performed with three independent biological replicates for each group (CTRL, HTRA2, UCF-101, and CDR group). After incubation at 4 °C overnight, the 6xHis-tagged protein HTRA2 with the bounded protein interaction partners (co-immunoprecipitation) was isolated with the previously added HisPurTM Ni-NTA magnetic beads (Thermo Fisher Scientific, Rockford, IL, USA) using a magnetic stand. Each bead group was washed twice with 400 μL PBS and the bounded HTRA2 including the protein interaction partners were eluted by pH shift. The protein concentration of each eluate fraction was determined as described above. Afterwards, 50 μg of each eluate fraction was evaporated using a speed vacuum concentrator (SpeedVac) (Eppendorf, Hamburg, Germany) for 45 min at 30 °C and was stored afterwards at −20 °C.
The protein eluate fractions of each group (50 μg; n = 3 biological replicates per group) were separated by 1D SDS PAGE on 10-well NuPAGE® 12% Bis-Tris gels using NuPAGE™ MOPS SDS Running Buffer 20X (Thermo Fisher Scientific, Rockford, IL, USA). The 1D SDS PAGE was performed with the XCell SureLock^TM Mini-Cell Electrophoresis System (Thermo Fisher Scientific, Rockford, IL, USA) under denatured and reduced conditions, as already described in previous publications. The protein separation was performed for 2 h at 4 °C using 150 V, and then the gels were stained with the Novex Colloidal Blue Staining Kit (Thermo Fisher Scientific, Rockford, IL, USA) according to the manufacturer’s protocol. The next day, the gels were destained overnight and scanned using a DGP-9042 scanner (Brother Industries, Nagoya, Japan) at 600 dpi. In-gel trypsin digestion was performed as already described in previous publications. In brief, each protein lane was divided into 17 slices and was subsequently cut into small pieces. […]

[2] = system: HTRA2; details: immunoprecipitation experiments; cited from earlier work
Excerpt: The mitochondrial serine protease HTRA2 has many versatile biological functions ranging from being an important regulator of apoptosis to being an essential component for neuronal cell survival and mitochondrial homeostasis. Loss of HTRA2 protease function is known to cause neurodegeneration, whereas overactivation of its proteolytic function is associated with cell death and inflammation.

[3] = system: retinal ganglion cells (RGCs); details: cited from earlier work
Excerpt: However, in a recent study of our group we identified the protein HTRA2 as a high-affinity interaction partner of the synthetic peptide […] [16]. Thereby, this synthetic peptide encodes a complementary-determining region 1 (CDR1) of polyclonal antibody molecules, which was originally identified as a potential biomarker candidate in primary-open angle glaucoma (POAG) patients.

ASGYTFTNYGLSWVR [CDR, synthetic peptide encoding a complementary-determining region 1 (CDR1) of polyclonal antibody molecules]
FGF2 (Fibroblast growth factor 2) as significant interaction partner of HTRA2 ([1]; HTRA2 alone: -): √ (Proteins fulfilled filtering criteria (p < 0.01; log2 fold change > 1.5)) | FTH1 (Ferritin heavy chain) as significant interaction partner of HTRA2 ([1]; HTRA2 alone: -): √ (Proteins fulfilled filtering criteria (p < 0.01; log2 fold change > 1.5)) | GTF2F2 (General transcription factor IIF subunit 2) as significant interaction partner of HTRA2 ([1]; HTRA2 alone: -): - (Proteins failed to fulfill the filtering criteria (p > 0.01; log2 fold change < 1.5)) | NAPG (Gamma-soluble NSF attachment protein) as significant interaction partner of HTRA2 ([1]; HTRA2 alone: -): √ (Proteins fulfilled filtering criteria (p < 0.01; log2 fold change > 1.5)) | PDZD11 (PDZ domain-containing protein 11) as significant interaction partner of HTRA2 ([1]; HTRA2 alone: -): √ (Proteins fulfilled filtering criteria (p < 0.01; log2 fold change > 1.5)) | PGRMC1 (Membrane-associated progesterone receptor component 1) as significant interaction partner of HTRA2 ([1]; HTRA2 alone: -): - (Proteins failed to fulfill the filtering criteria (p > 0.01; log2 fold change < 1.5)) | PLRG1 (Pleiotropic regulator 1) as significant interaction partner of HTRA2 ([1]; HTRA2 alone: -): √ (Proteins fulfilled filtering criteria (p < 0.01; log2 fold change > 1.5)) | POLR2E (DNA-directed RNA polymerases I, II, and III subunit RPABC1) as significant interaction partner of HTRA2 ([1]; HTRA2 alone: -): √ (Proteins fulfilled filtering criteria (p < 0.01; log2 fold change > 1.5)) | PPA1 (Inorganic pyrophosphatase) as significant interaction partner of HTRA2 ([1]; HTRA2 alone: -): - (Proteins failed to fulfill the filtering criteria (p > 0.01; log2 fold change < 1.5)) | SFRP1 (Secreted frizzled-related protein 1) as significant interaction partner of HTRA2 ([1]; HTRA2 alone: -): √ (Proteins fulfilled filtering criteria (p < 0.01; log2 fold change > 1.5)) | TUBA1C (Tubulin alpha-1C chain) as significant interaction partner of HTRA2 ([1]; HTRA2 alone: -): √ (Proteins fulfilled filtering criteria (p < 0.01; log2 fold change > 1.5)) | UBE2N (Ubiquitin-conjugating enzyme E2 N) as significant interaction partner of HTRA2 ([1]; HTRA2 alone: -): √ (Proteins fulfilled filtering criteria (p < 0.01; log2 fold change > 1.5)) | CDC42 (Cell division control protein 42 homolog) as significant interaction partner of HTRA2 ([1]; HTRA2 alone: n.d.): √ (Proteins fulfilled filtering criteria (p < 0.01; log2 fold change > 1.5)) | COPE (Coatomer subunit epsilon) as significant interaction partner of HTRA2 ([1]; HTRA2 alone: n.d.): - (Proteins failed to fulfill the filtering criteria (p > 0.01; log2 fold change < 1.5)) | MRPL2 (39S ribosomal protein L2, mitochondrial) as significant interaction partner of HTRA2 ([1]; HTRA2 alone: n.d.): √ (Proteins fulfilled filtering criteria (p < 0.01; log2 fold change > 1.5)) | SNX3 (Sorting nexin-3) as significant interaction partner of HTRA2 ([1]; HTRA2 alone: n.d.): √ (Proteins fulfilled filtering criteria (p < 0.01; log2 fold change > 1.5)) | SOWAHA (Ankyrin repeat domain-containing protein SOWAHA) as significant interaction partner of HTRA2 ([1]; HTRA2 alone: n.d.): √ (Proteins fulfilled filtering criteria (p < 0.01; log2 fold change > 1.5)) | TIMM13 (Mitochondrial import inner membrane translocase subunit Tim13) as significant interaction partner of HTRA2 ([1]; HTRA2 alone: n.d.): √ (Proteins fulfilled filtering criteria (p < 0.01; log2 fold change > 1.5)) | TUBB8 (Tubulin beta-8 chain) as significant interaction partner of HTRA2 ([1]; HTRA2 alone: n.d.): √ (Proteins fulfilled filtering criteria (p < 0.01; log2 fold change > 1.5)) | AGPS (Alkyldihydroxyacetonephosphate synthase, peroxisomal) as significant interaction partner of HTRA2 ([1]; HTRA2 alone: √): √ (Proteins fulfilled filtering criteria (p < 0.01; log2 fold change > 1.5)) | ANK2 (Ankyrin-2) as significant interaction partner of HTRA2 ([1]; HTRA2 alone: √): - (Proteins failed to fulfill the filtering criteria (p > 0.01; log2 fold change < 1.5)) | AP2A1 (AP-2 complex subunit alpha-1) as significant interaction partner of HTRA2 ([1]; HTRA2 alone: √): - (Proteins failed to fulfill the filtering criteria (p > 0.01; log2 fold change < 1.5)) | AP3D1 (AP-3 complex subunit delta-1) as significant interaction partner of HTRA2 ([1]; HTRA2 alone: √): - (Proteins failed to fulfill the filtering criteria (p > 0.01; log2 fold change < 1.5)) | AUH (Methylglutaconyl-CoA hydratase, mitochondrial) as significant interaction partner of HTRA2 ([1]; HTRA2 alone: √): √ (Proteins fulfilled filtering criteria (p < 0.01; log2 fold change > 1.5)) | CS (Citrate synthase, mitochondrial) as significant interaction partner of HTRA2 ([1]; HTRA2 alone: √): - (Proteins failed to fulfill the filtering criteria (p > 0.01; log2 fold change < 1.5)) | CSTB (Cystatin-B) as significant interaction partner of HTRA2 ([1]; HTRA2 alone: √): √ (Proteins fulfilled filtering criteria (p < 0.01; log2 fold change > 1.5)) | DNAJA3 (DnaJ homolog subfamily A member 3, mitochondrial) as significant interaction partner of HTRA2 ([1]; HTRA2 alone: √): - (Proteins failed to fulfill the filtering criteria (p > 0.01; log2 fold change < 1.5)) | DTD1 (D-aminoacyl-tRNA deacylase 1) as significant interaction partner of HTRA2 ([1]; HTRA2 alone: √): - (Proteins failed to fulfill the filtering criteria (p > 0.01; log2 fold change < 1.5)) | EIF2S3 (Eukaryotic translation initiation factor 2 subunit 3) as significant interaction partner of HTRA2 ([1]; HTRA2 alone: √): - (Proteins failed to fulfill the filtering criteria (p > 0.01; log2 fold change < 1.5)) | FAM30A (Putative uncharacterized protein FAM30A) as significant interaction partner of HTRA2 ([1]; HTRA2 alone: √): - (Proteins failed to fulfill the filtering criteria (p > 0.01; log2 fold change < 1.5)) | FLNA (Filamin-A) as significant interaction partner of HTRA2 ([1]; HTRA2 alone: √): - (Proteins failed to fulfill the filtering criteria (p > 0.01; log2 fold change < 1.5)) | GDI1 (Rab GDP dissociation inhibitor alpha) as significant interaction partner of HTRA2 ([1]; HTRA2 alone: √): √ (Proteins fulfilled filtering criteria (p < 0.01; log2 fold change > 1.5)) | GLO1 (Lactoylglutathione lyase) as significant interaction partner of HTRA2 ([1]; HTRA2 alone: √): √ (Proteins fulfilled filtering criteria (p < 0.01; log2 fold change > 1.5)) | GNL1 (Guanine nucleotide-binding protein-like 1) as significant interaction partner of HTRA2 ([1]; HTRA2 alone: √): - (Proteins failed to fulfill the filtering criteria (p > 0.01; log2 fold change < 1.5)) | HAGH (Hydroxyacylglutathione hydrolase, mitochondrial) as significant interaction partner of HTRA2 ([1]; HTRA2 alone: √): - (Proteins failed to fulfill the filtering criteria (p > 0.01; log2 fold change < 1.5)) | HTRA2 (Serine protease HTRA2, mitochondrial; target protein) enriched ([1]; HTRA2 alone: √): √ (Proteins fulfilled filtering criteria (p < 0.01; log2 fold change > 1.5)) | HYOU1 (Hypoxia up-regulated protein 1) as significant interaction partner of HTRA2 ([1]; HTRA2 alone: √): - (Proteins failed to fulfill the filtering criteria (p > 0.01; log2 fold change < 1.5)) | MCTS1 (Malignant T-cell-amplified sequence 1) as significant interaction partner of HTRA2 ([1]; HTRA2 alone: √): √ (Proteins fulfilled filtering criteria (p < 0.01; log2 fold change > 1.5)) | ME2 (NAD-dependent malic enzyme, mitochondrial) as significant interaction partner of HTRA2 ([1]; HTRA2 alone: √): - (Proteins failed to fulfill the filtering criteria (p > 0.01; log2 fold change < 1.5)) | NCKAP1 (Nck-associated protein 1) as significant interaction partner of HTRA2 ([1]; HTRA2 alone: √): - (Proteins failed to fulfill the filtering criteria (p > 0.01; log2 fold change < 1.5)) | PACS1 (Phosphofurin acidic cluster sorting protein 1) as significant interaction partner of HTRA2 ([1]; HTRA2 alone: √): - (Proteins failed to fulfill the filtering criteria (p > 0.01; log2 fold change < 1.5)) | POTEE (POTE ankyrin domain family member E) as significant interaction partner of HTRA2 ([1]; HTRA2 alone: √): - (Proteins failed to fulfill the filtering criteria (p > 0.01; log2 fold change < 1.5)) | PSMC1 (26S proteasome regulatory subunit 4) as significant interaction partner of HTRA2 ([1]; HTRA2 alone: √): - (Proteins failed to fulfill the filtering criteria (p > 0.01; log2 fold change < 1.5)) | PTGES3 (Prostaglandin E synthase 3) as significant interaction partner of HTRA2 ([1]; HTRA2 alone: √): √ (Proteins fulfilled filtering criteria (p < 0.01; log2 fold change > 1.5)) | RPS12 (40S ribosomal protein S12) as significant interaction partner of HTRA2 ([1]; HTRA2 alone: √): - (Proteins failed to fulfill the filtering criteria (p > 0.01; log2 fold change < 1.5)) | SPTBN1 (Spectrin beta chain, non-erythrocytic 1) as significant interaction partner of HTRA2 ([1]; HTRA2 alone: √): - (Proteins failed to fulfill the filtering criteria (p > 0.01; log2 fold change < 1.5)) | UBE2V1 (Ubiquitin-conjugating enzyme E2 variant 1) as significant interaction partner of HTRA2 ([1]; HTRA2 alone: √): √ (Proteins fulfilled filtering criteria (p < 0.01; log2 fold change > 1.5)) | Affinity for the target protein HTRA2 [2]: high affinity | Effect on retinal ganglion cells (RGCs) in an organ culture model for glaucoma [3]: neuroprotective effects
